According to patent publication US20130165368A1, “ANTIMICROBIAL COMPOUNDS” (priority 2010, published 2013):
In brackets after ≈: the same amount, converted by molar mass.

system: MRSA EMRSA 15 21698/98; assay: MIC agar dilution, MRSA strain 41; assay type: cell-based; conditions: Staphylococcus aureus, 22 hrs
Procedure: (§1) Molar equivalent concentrations were used to allow comparison between compounds of differing molecular mass. Due to weighing difficulties, any compound in solid form was melted in a water bath prior to dilution. To make ten-times strength concentrations, which takes into account agar dilution, 0.0352 mmol of each compound was weighed into plastic universal bottles and 4 mL of sterile distilled water (SDW) was added. To produce a homogenous emulsion the universals were vortexed; once achieved the emulsions were serial diluted by adding 2 mL to 2 mL of SDW.
(§2) For every 100 mL of Isosensitest agar (IST) (CM0471; Oxoid, Basingstoke, England), 3.1 g of the IST powder was added to 100 mL SDW (as per manufacturer's instructions) and sterilised for 15 minutes at 121° C. Once sterilised, the molten agar was cooled to 50° C. in a water-bath. Subsequently 4.8 g of CCEY powder (BC2160; Bioconnections, Wetherby, England), also known as Brazier's medium, was added to 100 mL SDW for every 100 mL of agar needed. This was then sterilised for 15 minutes at 121° C. Once sterilised the molten agar was cooled to 50° C. in a water-bath and 4 mL of egg-yolk emulsion (S2073; TCS Biosciences Ltd, Buckingham, United Kingdom) and 1 mL of lysed defibrinated horse blood (HB035; TCS Biosciences Ltd, Buckingham, United Kingdom) were also added for every 100 mL needed. Horse blood lysis is achieved by dilution to half concentration with SDW; when fully lysed the mixture will turn dark red in colour.
(§3) 18 mL agar was added to each universal and then poured into sterile Petri dishes. This step creates a 1/10 dilution resulting in agar plates of the required strength. Control plates for each set of strains were created by adding 18 mL of agar to 2 mL of SDW.
(§4) Suspensions of each bacterial species were prepared with a density equal to that of a 0.5 McFarland standard using a densitometer. All suspensions were made using sterile distilled water and fresh 18-20 hour cultures. As a 0.5 McFarland standard contains 1.5×10^8 CFU/mL and the multipoint inoculators applies 1 μL spots of liquid, each bacterial suspension was diluted 1/15 (20 μL suspension to 280 μL sterile distilled water).
(§5) Bacterial suspensions were prepared from fresh 18-24 hour cultures as previously described. 1 μL of each strain was inoculated onto all 100 agar plates containing a different chemical concentration and the 2 control plates. This was done using a multipoint inoculator which inoculates 20 strains per plate. All plates were incubated for 22 hours at 37° C. in aerobic conditions.
(§6) Each plate was examined for bacterial growth after 22 and 48 hours, with each being incubated in between examinations. A positive result was recorded as growth of ≧10 colonies. A negative result was recorded as growth of <10 colonies as this is equivalent to 99.9% inhibition. The lowest concentration of chemical that inhibited growth was recorded as the MIC. The results are recorded in Table IV below, where the numbers are quoted in mmol/L.
(§7) Given the positive performance of the ethoxylates of lauryl alcohol in reducing the MIC for a number of the micro-organisms tested, further MIC testing of Laureth-1 [C12E1] through to Laureth-8 [C12E8] was conducted on each of the following: • 10 strains of vancomycin-resistant enterococci (VRE)—listed in Table V below; and • 20 strains of methicillin-resistant Staphylococcus aureus (MRSA)—listed in Table VI.
(§8) The alkanol, alkanol derivatives, agar plates, and inocula were all prepared in the same way as described above.
(§9) The plates were examined in the same manner as described above and the results are recorded in Table VII below, where the numbers are quoted in mmol/L.

SMILES	MIC
CCCCCCCCCCCCOCCOCCOCCOCCOCCO [L5, Pentaethylene Glycol Monododecyl Ether]	110 µM (≈ 44.7 µg/mL)

same assay, conditions: Staphylococcus aureus, 48 hrs

SMILES	MIC
CCCCCCCCCCCCOCCOCCOCCOCCOCCO [L5, Pentaethylene Glycol Monododecyl Ether]	110 µM (≈ 44.7 µg/mL)

system: MRSA BEL 97597; assay: MIC agar dilution, MRSA strain 33; assay type: cell-based; conditions: Staphylococcus aureus, 22 hrs
Procedure: as §1, §2, §3, §4, §5, §6, §7, §8, §9

SMILES	MIC
CCCCCCCCCCCCOCCOCCOCCOCCOCCO [L5, Pentaethylene Glycol Monododecyl Ether]	110 µM (≈ 44.7 µg/mL)

same assay, conditions: Staphylococcus aureus, 48 hrs

SMILES	MIC
CCCCCCCCCCCCOCCOCCOCCOCCOCCO [L5, Pentaethylene Glycol Monododecyl Ether]	110 µM (≈ 44.7 µg/mL)

system: Enterococcus faecium (VRE) 12185 Clin waste; assay: MIC agar dilution, VRE strain 24; assay type: cell-based; conditions: 22 hrs
Procedure: as §1, §2, §3, §4, §5, §6, §7, §8, §9

SMILES	MIC
CCCCCCCCCCCCOCCOCCOCCOCCOCCO [L5, Pentaethylene Glycol Monododecyl Ether]	220 µM (≈ 89.5 µg/mL)

same assay, conditions: 48 hrs

SMILES	MIC
CCCCCCCCCCCCOCCOCCOCCOCCOCCO [L5, Pentaethylene Glycol Monododecyl Ether]	220 µM (≈ 89.5 µg/mL)

system: MRSA GER 131/98 (Sger Iidc); assay: MIC agar dilution, MRSA strain 35; assay type: cell-based; conditions: Staphylococcus aureus, 22 hrs
Procedure: as §1, §2, §3, §4, §5, §6, §7, §8, §9

SMILES	MIC
CCCCCCCCCCCCOCCOCCOCCOCCOCCO [L5, Pentaethylene Glycol Monododecyl Ether]	110 µM (≈ 44.7 µg/mL)

same assay, conditions: Staphylococcus aureus, 48 hrs

SMILES	MIC
CCCCCCCCCCCCOCCOCCOCCOCCOCCO [L5, Pentaethylene Glycol Monododecyl Ether]	110 µM (≈ 44.7 µg/mL)

system: MRSA EMRSA 15 1729/98; assay: MIC agar dilution, MRSA strain 42; assay type: cell-based; conditions: Staphylococcus aureus, 22 hrs
Procedure: as §1, §2, §3, §4, §5, §6, §7, §8, §9

SMILES	MIC
CCCCCCCCCCCCOCCOCCOCCOCCOCCO [L5, Pentaethylene Glycol Monododecyl Ether]	110 µM (≈ 44.7 µg/mL)

same assay, conditions: Staphylococcus aureus, 48 hrs

SMILES	MIC
CCCCCCCCCCCCOCCOCCOCCOCCOCCO [L5, Pentaethylene Glycol Monododecyl Ether]	110 µM (≈ 44.7 µg/mL)

system: MRSA EMRSA 16 07924/95; assay: MIC agar dilution, MRSA strain 49; assay type: cell-based; conditions: Staphylococcus aureus, 22 hrs
Procedure: as §1, §2, §3, §4, §5, §6, §7, §8, §9

SMILES	MIC
CCCCCCCCCCCCOCCOCCOCCOCCOCCO [L5, Pentaethylene Glycol Monododecyl Ether]	110 µM (≈ 44.7 µg/mL)

same assay, conditions: Staphylococcus aureus, 48 hrs

SMILES	MIC
CCCCCCCCCCCCOCCOCCOCCOCCOCCO [L5, Pentaethylene Glycol Monododecyl Ether]	110 µM (≈ 44.7 µg/mL)

system: Staphylococcus aureus (MRSA); assay: MIC agar dilution, micro-organism 12 (11939); assay type: cell-based; conditions: Staphylococcus aureus, MRSA, 22 h, Staphylococcus aureus (MRSA) 11939; 22 hrs; read-out: MIC
Summary of the method: (§10)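 Agar dilution in Isosensitest/CCEY agar with egg yolk and lysed horse blood; compounds as aqueous emulsions (myristyl and lauryl alcohol with 1-methyl-2-pyrrolidone and Tween 20). 1 µL spots of 1/15-diluted 0.5 McFarland suspensions, 37 °C aerobic, read at 22 and 48 h; MIC (mmol/L) is lowest concentration giving <10 colonies.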

SMILES	MIC
CCCCCCCCCCCCOCCOCCOCCOCCOCCO [L5, Pentaethylene Glycol Monododecyl Ether]	110 µM (≈ 44.7 µg/mL)

same assay, conditions: Staphylococcus aureus, MRSA, 48 h, Staphylococcus aureus (MRSA) 11939; 48 hrs; read-out: MIC

SMILES	MIC
CCCCCCCCCCCCOCCOCCOCCOCCOCCO [L5, Pentaethylene Glycol Monododecyl Ether]	220 µM (≈ 89.5 µg/mL)

system: Enterococcus faecium (VRE) 255693 N. Tyneside; assay: MIC agar dilution, VRE strain 22; assay type: cell-based; conditions: 22 hrs
Procedure: as §1, §2, §3, §4, §5, §6, §7, §8, §9

SMILES	MIC
CCCCCCCCCCCCOCCOCCOCCOCCOCCO [L5, Pentaethylene Glycol Monododecyl Ether]	220 µM (≈ 89.5 µg/mL)

same assay, conditions: 48 hrs

SMILES	MIC
CCCCCCCCCCCCOCCOCCOCCOCCOCCO [L5, Pentaethylene Glycol Monododecyl Ether]	220 µM (≈ 89.5 µg/mL)

system: MRSA EMRSA 15 21268/98; assay: MIC agar dilution, MRSA strain 40; assay type: cell-based; conditions: Staphylococcus aureus, 22 hrs
Procedure: as §1, §2, §3, §4, §5, §6, §7, §8, §9

SMILES	MIC
CCCCCCCCCCCCOCCOCCOCCOCCOCCO [L5, Pentaethylene Glycol Monododecyl Ether]	110 µM (≈ 44.7 µg/mL)

same assay, conditions: Staphylococcus aureus, 48 hrs

SMILES	MIC
CCCCCCCCCCCCOCCOCCOCCOCCOCCO [L5, Pentaethylene Glycol Monododecyl Ether]	110 µM (≈ 44.7 µg/mL)

system: Enterococcus faecalis (VRE) MB 1969; assay: MIC agar dilution, VRE strain 27; assay type: cell-based; conditions: 22 hrs
Procedure: as §1, §2, §3, §4, §5, §6, §7, §8, §9

SMILES	MIC
CCCCCCCCCCCCOCCOCCOCCOCCOCCO [L5, Pentaethylene Glycol Monododecyl Ether]	220 µM (≈ 89.5 µg/mL)

same assay, conditions: 48 hrs

SMILES	MIC
CCCCCCCCCCCCOCCOCCOCCOCCOCCO [L5, Pentaethylene Glycol Monododecyl Ether]	220 µM (≈ 89.5 µg/mL)

system: MRSA BEL 97598; assay: MIC agar dilution, MRSA strain 34; assay type: cell-based; conditions: Staphylococcus aureus, 22 hrs
Procedure: as §1, §2, §3, §4, §5, §6, §7, §8, §9

SMILES	MIC
CCCCCCCCCCCCOCCOCCOCCOCCOCCO [L5, Pentaethylene Glycol Monododecyl Ether]	110 µM (≈ 44.7 µg/mL)

same assay, conditions: Staphylococcus aureus, 48 hrs

SMILES	MIC
CCCCCCCCCCCCOCCOCCOCCOCCOCCO [L5, Pentaethylene Glycol Monododecyl Ether]	110 µM (≈ 44.7 µg/mL)

system: Staphylococcus aureus; assay: MIC agar dilution, micro-organism 13 (6571); assay type: cell-based; conditions: Staphylococcus aureus, 22 h, Staphylococcus aureus 6571; 22 hrs; read-out: MIC
Summary of the method: as §10

SMILES	MIC
CCCCCCCCCCCCOCCOCCOCCOCCOCCO [L5, Pentaethylene Glycol Monododecyl Ether]	110 µM (≈ 44.7 µg/mL)

same assay, conditions: Staphylococcus aureus, 48 h, Staphylococcus aureus 6571; 48 hrs; read-out: MIC

SMILES	MIC
CCCCCCCCCCCCOCCOCCOCCOCCOCCO [L5, Pentaethylene Glycol Monododecyl Ether]	110 µM (≈ 44.7 µg/mL)

system: MRSA EMRSA 16 00036/95; assay: MIC agar dilution, MRSA strain 46; assay type: cell-based; conditions: Staphylococcus aureus, 22 hrs
Procedure: as §1, §2, §3, §4, §5, §6, §7, §8, §9

SMILES	MIC
CCCCCCCCCCCCOCCOCCOCCOCCOCCO [L5, Pentaethylene Glycol Monododecyl Ether]	110 µM (≈ 44.7 µg/mL)

same assay, conditions: Staphylococcus aureus, 48 hrs

SMILES	MIC
CCCCCCCCCCCCOCCOCCOCCOCCOCCO [L5, Pentaethylene Glycol Monododecyl Ether]	110 µM (≈ 44.7 µg/mL)
